Results as given in patent US20100105707A1, “METHOD OF TREATING OR PREVENTING OXIDATIVE STRESS-RELATED DISEASE” (The United States of America, priority 2006, published 2010).
≈ marks a conversion by molar mass, not a printed value.

What was measured:
[1] = Water solubility in cold water; type: physicochemical
Protocol: Commercially available derivatives are obtained from Sigma-Aldrich (St. Louis, Mo.). The methods used for the synthesis of methyl- and sulfur-derivatives of uric acid are similar to those described previously (Beaman et al., J. Org. Chem., 27, 986-990 (1962) and Maruyama et al., Nucleosides, Nucleotides, Nucleic Acids, 19, 1193-1203 (2000)) and structures are confirmed by ^13C nuclear magnetic resonance (NMR) and ultra-violet (UV) spectral analyses. Uric acid analogs are assayed by high performance liquid chromatography (HPLC) and found to be of >97% purity.

[2] = Pharmacokinetics: plasma and brain levels after intravenous administration; type: in vivo, C57BL/6 mice; details: mice; for Kp: male, C57BL/6, mouse, brain (cerebral cortical tissue) / plasma, early time points (15-30 min), read-out: brain tissue concentration as percentage of plasma concentration; for detection in the brain: equimolar to 10 mg/kg uric acid, 15, 30, 60 and 120 min; for brain concentration time course versus plasma: through the 120 min time point
Protocol: Mice are administered intravenously 10 mg/kg ([…]) of uric acid as a reference compound and equimolar doses of its analogs (sUA4-2,6,8 trithio uric acid, 12.9 mg/kg; mUA2-1,7 dimethyl uric acid, 11.7 mg/kg; sUA2-6,8 dithio uric acid, 11.9 mg/kg). Three month-old male C57BL/6 mice are injected with a compound and are euthanized 15, 30, 60 or 120 min later (1 mouse/time point/compound). Blood and brain tissues are rapidly removed, frozen on dry ice and kept at −80° C. before quantification of uric acid analogs. Plasma and cerebral cortical tissues are extracted in 10 volumes of 0.5 M perchloric acid and 1 mM ethylenediamine tetraacetic acid (EDTA). Levels of uric acid analogs in the extracts are quantified by HPLC methods employing a 25 cm RP C18 column, 25 mM KH2PO4 buffer (pH=4.6) with 1 ml/min flow rate and UV diode array detection.
Mice that are administered mUA2, sUA2 or sUA4 intravenously are euthanized at increasing time points (15, 30, 60 and 120 min) and levels of the compounds in plasma and brain tissue are measured.

[3] = test system: cultured hippocampal neurons; test: Oxygen and glucose deprivation (OGD) of cultured hippocampal neurons; type: cell-based, rat; details: compared to neurons in control cultures; FIG. 2
Protocol: FIG. 2 illustrates that compounds of formula (I) protect cultured hippocampal neurons against ischemia-like conditions in an embodiment of the invention. Neuronal survival is quantified and values are the mean and SEM (n=8-10 cultures). *p<0.05 compared to the vehicle/OGD cultures. Synaptosomes are prepared from the cerebral cortex of 2-3 month-old adult male Sprague-Dawley rats and are cryopreserved using methods described previously (Begley et al., Brain Res. Protoc., 3, 76-82 (1998)). After thawing, cryopreserved synaptosomes are washed twice with Locke's buffer and plated in 24-well plates at a protein concentration of 250 μg per well. After a 30 min period to permit attachment of the synaptosomes to the substrate, synaptomoses are incubated for 1 h with compounds of formula (I) (1-10 μM), and then exposed for 4 h to freshly prepared 50 μM Fe^2+ (FeSO4). After an additional 30 min incubation in the presence of 10 μM dihydrorhodamine 123 (DHR), a probe for ROS which fluoresces when oxidized (Keller et al., J. Neurochem., 69, 273-284 (1997)), the synaptosomes are washed twice with Locke's buffer and levels of fluorescence are quantified using a fluorescence plate reader (488 nm excitation and 510 emission wavelengths). Fluorescence values for wells exposed to experimental treatments are expressed as a percentage of the mean value for untreated control wells. […] Methods for preparation and maintenance of cultures of PC12 cells and primary embryonic rat hippocampal neurons have been described previously (Furukawa et al., J. Neurosci., 17, 8178-8186 (1997) and Chan et al., J. Biol. Chem., 279, 28733-28743 (2004)). Cells are plated into polyethylenimine-coated plastic 96-well culture plates containing Neurobasal medium with B27 supplements. Experiments are performed in 7-8 day-old cultures (hippocampal neurons) or Dulbecco's modified eagle's medium (DMEM) with 10% fetal bovine serum (PC12 cells). […] Cell viability is quantified by counting viable neurons in premarked microscope fields prior to and following experimental treatment and then calculating percent survival.

[4] = test system: mouse model of focal ischemic stroke; test: Focal cerebral ischemia-reperfusion (middle cerebral artery occlusion) model; type: in vivo, C57BL/6 mice; details: administered 1 h after ischemia onset; for functional outcome (neurological deficit score): FIG. 5A; for brain damage: FIG. 5B
Protocol: FIG. 4 illustrates that a compound of formula (I) improves functional outcome (e.g., ambulation) and reduces brain damage in a mouse model of focal ischemic stroke in an embodiment of the invention. In FIG. 4A neurological function is scored at 24, 48 and 72 hours post-stroke. In FIG. 4B infarct volume is quantified at 72 hours post-stroke. Values are the mean and SEM (n=8-12 mice). *p<0.001 compared to sham. +p<0.01 compared to vehicle.
FIG. 5 illustrates that compounds of formula (I) improve functional outcome and reduces brain damage in a mouse model of focal ischemic stroke in an embodiment of the invention. In FIG. 5A, neurological function is scored at 24, 48 and 72 hours post-stroke. In FIG. 5B, infarct volume is quantified at 72 hours post-stroke. Values are the mean and SEM (n=8-12 mice). *p<0.001 compared to sham. +p<0.01 compared to vehicle.
Three month-old male C57BL/6 mice are maintained on a 12 h light/12 h dark cycle with continuous access to food and water. The method for subjecting the mice to middle cerebral artery occlusion-reperfusion has been described previously (Arumugam et al., Am. J. Physiol. Heart Circ. Physiol., 287, H2555-2560 (2004)). Mice are anesthetized with isofluorane, a midline incision is made in the neck, and the left external carotid and pterygopalatine arteries are isolated and ligated with 5-0 silk thread. The internal carotid artery (ICA) is occluded at the peripheral site of the bifurcation of the internal carotid artery and the pterygopalatine artery with a small clip and the common carotid artery is ligated with 5-0 silk thread. The external carotid artery is cut, and a 6-0 nylon monofilament with a tip that is blunted (0.2-0.22 mm) with a coagulator is inserted into the external carotid artery. After the clip at the ICA is removed, the nylon thread is advanced into the middle cerebral artery until light resistance is felt. The nylon thread and the common carotid artery ligature are removed after 1 h of occlusion to initiate reperfusion. In the sham group, these arteries are visualized but not disturbed. Mice are administered either uric acid analogs of formula (I) or vehicle (dimethylsulfoxide) by infusion into the femoral vein (10 μl infused over a 2 min period) either 30 min prior to or 60 min after the onset of middle cerebral artery (MCA) occlusion. In a separate set of experiments anesthetized animals from all groups (4-6 mice per group) undergo cerebral blood flow (CBF) measurements using a laser Doppler perfusion monitor. All blood flow measurements are conducted with the mouse fixed in a plastic frame with the probe placed in the region of cerebral cortex perfused by the middle cerebral artery. These procedures are approved by the National Institute on Aging Animal Care and Use Committee.
The functional consequences of focal cerebral ischemia-reperfusion injury are evaluated by using a five-point neurological deficit score (0, no deficit; 1, failure to extend right paw; 2, circling to the right; 3, falling to the right; and 4, unable to walk spontaneously) and are assessed in a blinded fashion. At 72 h of reperfusion, the mice are killed with a lethal dose of isofluorane. The brains are immediately removed and placed into PBS (4° C.) for 15 min, and 2-mm coronal sections are cut with a tissue cutter. The brain sections are stained with 2% 2,3,5-triphenyltetrazolium chloride in phosphate buffer at 37° C. for 15 min. The stained sections are photographed, and the digitized images are used for analysis. The borders of the infarct in each brain slice are outlined and the area quantified using a NIH image 6.1 software. To correct for brain swelling, the infarct area is determined by subtracting the area of undamaged tissue in the left hemisphere from that of the intact contralateral hemisphere. Infarct volume is calculated by integration of infarct areas for all slices of each brain.

Structure (SMILES) | solubility [1] | Kp [2] | detection in the brain [2] | brain concentration time course versus plasma [2] | resistance to OGD induced death [3] | functional outcome (neurological deficit score) [4] | brain damage [4]
Cn1c(=O)[nH]c2[nH]c(=O)n(C)c2c1=O [mUA2, 1,7 dimethyl uric acid] | 2000 µg/mL (≈ 10.2 mM) | ~0.1 | detected in the brain at all time points examined | remain elevated while plasma concentrations decrease progressively | significantly more resistant | significantly improve functional outcome | decrease brain damage
S=c1[nH]c(=S)c2[nH]c(=S)[nH]c2[nH]1 [sUA4, 2,6,8 trithio uric acid] | 3000 µg/mL (≈ 13.9 mM) | ~0.1 | detected in the brain at all time points examined | remain elevated while plasma concentrations decrease progressively | significantly more resistant | significantly improve functional outcome | decrease brain damage
